Measured values taken from PMC9497102, “Thiosemicarbazone Derivatives Developed to Overcome COTI-2 Resistance” (Cancers, 2022).
Where two headings read alike, the source gives them in different places.

Assays:
SW480/Tria cells = assay: MTT viability assay, 72 h; format: cell-based, human; conditions: for Relative Resistance SW480/Tria: IC50 of resistant subline divided by IC50 of parental SW480; for IC50: Homo sapiens, SW480, 72 h, MTT
Procedure: (§1) In vitro tests were performed with human colorectal cancer SW480 cells (purchased from the American Type Culture Collection, Manassas, VA, USA), SW480/Tria, and the SW480/Coti cells, which are previously established sublines that are resistant to Triapine and COTI-2 [16], respectively. Additionally, small-cell lung carcinoma GLC-4 and its subline GLC-4/adr, which is a doxorubicin-resistant subline overexpressing ABCC1 (purchased from Dr. […], Groningen, The Netherlands), were used. All cells were maintained in a humidified 5% CO2 incubator at 37 °C and grown in minimal essential medium or RPMI-1640, respectively, supplemented with 10% fetal bovine serum (FBS). In order to maintain the resistant phenotype of GLC-4/adr cells, they were selected with doxorubicin (1152 nM) once a month. All cell lines were tested for mycoplasma contamination. For the cytotoxicity, cell viability, and proliferation studies, the 3-(4,5-dimethylthiazol-2-yl)-2,5-diphenyltetrazolium bromide (MTT) assay was utilized. Cells were seeded in 96-well plates at a density of 2 × 10^4 cells/well, with the exception of SW480/Tria, which was used at a density of 3 × 10^4 cells/well. After 24 h of recovery, cells were treated with the indicated concentration of drugs. For the drug combination experiments, verapamil and cyclosporine A (CSA) were used as ABCC1 modulators, and tetrathiomolybdate (TTM) was used as a copper chelator. The TSCs were dissolved in DMSO followed by subsequent dilutions in the medium in order to maintain a final DMSO concentration of <1%. After 72 h, the treatment solution was removed and replaced with 100 μL of MTT solution (EZ4U, Biomedica, Vienna, Austria), which was diluted 1:10 in the growth medium. A TECAN Infinite 200 Pro plate reader was used to measure the absorbance of the solution after 2-3 h incubation at 5% CO2 in an incubator at 37 °C. The anticancer activity was determined with GraphPad Prism software and indicated as IC50 values (half maximum inhibitory concentration).

SW480 cells = assay: MTT viability assay, 72 h; format: cell-based, human; conditions: for IC50: Homo sapiens, SW480, MTT; for enhancement of cytotoxicity by copper complexation: copper complex vs. ligand
Procedure: as §1

[1] = pKa by UV-vis spectrophotometric titrations; format: physicochemical; conditions: 30% (v/v) DMSO/H2O solution, I = 0.1 M (KCl), 25 °C
Procedure: (§2) The UV-vis spectra were recorded using an Agilent Cary 8454 diode array spectrophotometer in the 200 to 950 nm window, and the path length was varied between 1 and 5 cm, depending on the solubility (thus the applicable concentration). For the spectrophotometric titrations, the same instruments (Metrohm 665 Dosimat burette, Orion 710A pH-meter, Metrohm combined pH glass electrode) and experimental setup (ionic strength: 0.10 M (KCl); titrant: 0.10 M carbonate-free KOH solution in 30% (v/v) DMSO/H2O; samples: prepared in 30% (v/v) DMSO/H2O; calibration: method of Irving et al.; pH range: 1.0 to 13.5; and sample volume: 10 cm^3) were used as in our previous work. Argon overpressure was used for the Fe(II)-containing samples when the Fe(II) stock solution was added to the samples in tightly closed titration vessels, which were previously completely deoxygenated (for 20 min). Measurements were taken with ligands (10–80 μM, depending on solubility) in the presence of 1, 0.5, and 0.3 equiv. of Cu(II), Fe(II), and Fe(III) ions. Equilibrium constants, such as the proton dissociation constants (pKa) of the ligands, the overall stability constants (logβ) of the metal complexes, and the UV-vis spectra of the individual ligand or complex species were computed using the program PSEQUAD [18], as was the case in our previous works.

[2] = Iron(II) complex formation, UV-vis spectrophotometric titrations (anaerobic); format: physicochemical; conditions: for pFe(II): –log[free Fe(II)] calculated at cFe = 1 μM, cL = 10 μM, pH = 7.40
Procedure: as §2

[3] = tested on: SW480 and SW480/Coti cells; assay: HPLC-MS cell uptake measurements; format: cell-based, human; conditions: 10 µM, 3 h; for uptake lower in resistant SW480/Coti cells compared with parental SW480 cells: LC-MS (method not validated)
Procedure: Cells (1 × 10^6) were seeded in 25 cm^2 culture flasks and left to recover for 24 h at 37 °C and 5% CO2. The compounds were dissolved in DMSO (10 mM) and further diluted in the growth medium. The cells were treated in triplicate by replacing the growth medium with 5 mL of drug-containing medium (10 µM). After 3 h of incubation the cells were washed once with ice-cold PBS, and then collected by scraping into ice-cold PBS. The cell suspension was centrifuged for 5 min at 300× g and the supernatant was removed. Then, the cell pellets were lysed with three freeze/thaw cycles in liquid nitrogen/37 °C waterbath and re-suspended in 100 µL of water and 300 µL of cold acetonitrile (1:3 mixture). After 10 min of incubation on ice, the samples were centrifuged (15,080× g, 4 °C, and 10 min) and the supernatants were stored at −80 °C for HPLC-MS analysis. For the calibration curve, known concentrations of drugs were spiked into untreated cell extracts before adding acetonitrile. To normalize to the cell number, additional flasks were prepared (treated and untreated) and cells were collected by trypsinization and counted with counting chambers.
LC-MS analyses of the cell and media extracts were performed on a Vanquish Horizon UHPLC system (Thermo Fisher Scientific, Waltham, MA, USA) coupled to the ESI source of a timsTOF fleX mass spectrometer (Bruker Daltonics, Billerica, MA, USA). […] High-resolution ESI-MS spectra were recorded using the positive ion mode in the range of m/z 150–510 at a spectra rate of 2 Hz. […] For quantification, extracted ion chromatograms of m/z 249.1168 ± 0.0020 for COTI-NMe2 and of m/z 367.1699 ± 0.0020 for COTI-2 were calculated and the peak areas were determined using Bruker Compass Data Analysis 5.3.
In general, it must be mentioned that the LC-MS method for quantification of COTI-2 and COTI-NMe2 was not validated and that the deviation of the peak areas both within a batch and between batches was higher than expected. […]

[4] = T = 25.0 °C, I = 0.10 M (KCl), 30% (v/v) DMSO/H2O

Structure (SMILES): S=C(N/N=C1\CCCc2cccnc21)N1CCN(c2ccccn2)CC1 [COTI-2, 4-(pyridine-2-yl)-N-([(8E)-5,6,7,8-tetrahydroquinolin-8-ylidene]amino)piperazine-1-carbothioamide]
- Relative Resistance SW480/Tria (SW480/Tria cells): 1.1 ^n.s.
- IC50 (SW480 cells; 72 h): 0.37 ± 0.17 µM
- enhancement of cytotoxicity by copper complexation (SW480 cells; SW480 cells, 72 h): 7–8 fold
- pKa ([1]; read-out: pKa (H2L)): 5.08 ± 0.01
- pKa ([1]; read-out: pKa (H3L)): 3.23 ± 0.01
- pKa ([1]; read-out: pKa (HL)): 10.97 ± 0.01
- logβ [Fe(II)L2H2]^2+ [2, 4]: 41.18 ± 0.06
- logβ [Fe(II)L2H]^+ [2, 4]: 36.74 ± 0.09
- logβ [Fe(II)L2] [2, 4]: 30.63 ± 0.09
- logβ [Fe(II)LH]^2+ [2, 4]: 21.00 ± 0.03
- logβ [Fe(II)L]^+ [2, 4]: 18.28 ± 0.06
- pFe(II) [2]: 19.3
- uptake lower in resistant SW480/Coti cells compared with parental SW480 cells [3]: ~ 40%

Structure (SMILES): CN(C(=S)N/N=C1\CCCc2cccnc21)C1CCCCC1 [COTI-NMeCy, N-Cyclohexyl-2-(6,7-dihydroquinolin-8(5H)-ylidene)-N^4-methylhydrazine-1-carbothioamide]
- IC50 (SW480/Tria cells): 0.71 ± 0.17 µM
- Relative Resistance SW480/Tria (SW480/Tria cells): 1.1 ^n.s.
- IC50 (SW480 cells; 72 h): 0.64 ± 0.1 µM
- enhancement of cytotoxicity by copper complexation (SW480 cells; SW480 cells, 72 h): 7–8 fold
- pKa ([1]; read-out: pKa (H2L)): 3.47 ± 0.01
- pKa ([1]; read-out: pKa (HL)): 12.4 ± 0.01
- logβ [Fe(II)L2] [2, 4]: 31.04 ± 0.03
- logβ [Fe(II)L]^+ [2, 4]: 18.66 ± 0.03
- pFe(II) [2]: 16.9

Structure (SMILES): CN(C)C(=S)NN=C1CCCc2cccnc21 (mixture of isomers) [COTI-NMe2, 2-(6,7-Dihydroquinolin-8(5H)-ylidene)-N^4,N^4-dimethylhydrazine-1-carbothioamide]
- IC50 (SW480/Tria cells): 0.04 ± 0.02 µM
- Relative Resistance SW480/Tria (SW480/Tria cells): 1.0 ^n.s.
- IC50 (SW480 cells; 72 h): 0.04 ± 0.01 µM
- lower IC50 value than the other tested COTI-2 derivatives (SW480 cells; SW480 cells): ~ 10 fold
- lower IC50 value than COTI-2 (SW480 cells; SW480 cells, 72 h): 11 fold
- pKa ([1]; read-out: pKa (H2L)): 3.65 ± 0.01
- pKa ([1]; read-out: pKa (HL)): 12.09 ± 0.01
- logβ [Fe(II)L2] [2, 4]: 31.33 ± 0.09
- logβ [Fe(II)L]^+ [2, 4]: 17.62 ± 0.03
- pFe(II) [2]: 17.8
- uptake lower in resistant SW480/Coti cells compared with parental SW480 cells [3]: no difference
- lower intracellular drug levels compared with COTI-2 ([3]; both SW480 and SW480/Coti): 10–20 fold
